Among the test systems are HCC-2998 colon; SK-OV-3 ovarian; NCI-H23 lung; A549 NSCLC; NCI-H460 lung; MOLT-4 leukemia; T-47D breast; EKVX NSCLC; A498 renal; NCI-H226 lung; RXF 393 renal; TK-10 renal; ACHN renal; BT-549 breast.
What all share (assay): growth of human tumour cells (NCI), 48 h

Structures are written as SMILES.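 Exposure lasted 48 hours, with cells grown in 96-well plates and compounds tested at five concentrations. TGI: total growth inhibition.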

For the molecule `CN(C)c1ccc(NN=C2SC(=Nc3ccccc3)C(=Nc3ccccc3)S2)cc1`, the TGI with HCC-2998 colon, with SK-OV-3 ovarian, with NCI-H23 lung, in the experiment on A549 NSCLC, with NCI-H460 lung and with MOLT-4 leukemia was > 100 µM in each case. Moreover, the TGI in the experiment with T-47D breast, in the experiment with EKVX NSCLC, in the experiment with A498 renal, in the experiment on NCI-H226 lung, in the experiment on RXF 393 renal and in the experiment on TK-10 renal was > 100 µM in each case. Also, the TGI in the experiment with ACHN renal is > 100 µM.

With `O=C(NNCC(O)COc1ccccc1)c1ccccc1` (configuration not stated), the TGI in the experiment on HCC-2998 colon, with SK-OV-3 ovarian, with NCI-H23 lung, in the experiment with A549 NSCLC, with MOLT-4 leukemia and in the experiment on T-47D breast was > 100 µM each time. The TGI in the experiment with EKVX NSCLC, in the experiment on A498 renal, in the experiment on NCI-H226 lung, in the experiment on RXF 393 renal, with TK-10 renal and with ACHN renal was > 100 µM in each case.

`CCC(CCCN)Nc1cc(OC)cc2c(C)ccnc12` (configuration not stated): the TGI in the experiment on HCC-2998 colon was 44.9 µM; with SK-OV-3 ovarian, 26.4 µM; in the experiment with BT-549 breast, 28.5 µM; in the experiment with A549 NSCLC, 29.2 µM; in the experiment on NCI-H460 lung it was 32.3 µM; with MOLT-4 leukemia, 40 µM. Also, the TGI stood at 36.3 µM with EKVX NSCLC; 34 µM in the experiment on A498 renal; 28.3 µM in the experiment on NCI-H226 lung; 27 µM in the experiment on RXF 393 renal; 31.7 µM in the experiment on TK-10 renal; 32.6 µM in the experiment on ACHN renal.

Take `O=C(c1ccccc1)c1ccc2nc(-c3c(Cl)c(Cl)c(Cl)c(Cl)c3C(=O)N/N=C/c3ccc(Cl)cc3)[nH]c2c1`: the TGI in the experiment with SK-OV-3 ovarian is > 100 µM; in the experiment with NCI-H23 lung, > 100 µM; in the experiment with BT-549 breast it was > 100 µM; with A549 NSCLC, > 100 µM; in the experiment on MOLT-4 leukemia, > 100 µM; in the experiment on T-47D breast, 88 µM. Further, the TGI in the experiment with EKVX NSCLC is > 100 µM; in the experiment on NCI-H226 lung, > 100 µM; in the experiment with RXF 393 renal, 85.9 µM; in the experiment with TK-10 renal, > 100 µM; in the experiment with ACHN renal, 65.7 µM.

As to `COc1cc2c3c(c1)CCCN3CCC2`, the TGI with HCC-2998 colon, in the experiment on SK-OV-3 ovarian, in the experiment on NCI-H23 lung, with A549 NSCLC, in the experiment with NCI-H460 lung and with MOLT-4 leukemia was > 10 µM each time. In addition, the TGI in the experiment with T-47D breast, in the experiment on EKVX NSCLC, in the experiment with A498 renal, with NCI-H226 lung, in the experiment on RXF 393 renal and with TK-10 renal was > 10 µM each time. Besides, the TGI in the experiment on ACHN renal was > 10 µM.

For the molecule `COC1/C=C/C(C)C(C(C)C(OC)C(C)CCC(=O)C(C)C(C/C=C/N(C)C=O)OC)OC(=O)C=CC2OC2(C)CC(OC)C(OC)C2=CC(=O)O[C@@H](C(C)C(OC)CC(OC)/C=C/C(C)C(O)C1)[C@H]2O` (some centres not stated), the TGI was 0.0584 µM in the experiment with HCC-2998 colon; 0.0667 µM with SK-OV-3 ovarian; > 0.322 µM with NCI-H23 lung; 0.0907 µM with BT-549 breast; 0.0384 µM with A549 NSCLC; > 0.351 µM with NCI-H460 lung. In addition, the TGI with EKVX NSCLC came out at 0.0163 µM; in the experiment with A498 renal it was 0.0259 µM; in the experiment on NCI-H226 lung it was 0.0164 µM; in the experiment with RXF 393 renal it was 0.0473 µM; in the experiment with TK-10 renal it was 0.0304 µM; in the experiment on ACHN renal, 0.016 µM.

As for `C=C(Br)CNC(=O)Nc1ccc(Cl)c(Cl)c1`, the TGI is 44.7 µM in the experiment with HCC-2998 colon; 77 µM with SK-OV-3 ovarian; 39.6 µM in the experiment on NCI-H23 lung; 66 µM in the experiment with A549 NSCLC; > 100 µM in the experiment on NCI-H460 lung; 73.9 µM in the experiment with MOLT-4 leukemia. Moreover, the TGI with T-47D breast was > 100 µM; in the experiment with EKVX NSCLC it was 78.4 µM; in the experiment with A498 renal it was 27.3 µM; with NCI-H226 lung, 67.4 µM; with RXF 393 renal, 40 µM; in the experiment with TK-10 renal it was 62.4 µM. Besides, the TGI in the experiment with ACHN renal was 55 µM.

Consider `COc1c(F)c(F)c(/C(O)=C\c2nc3ccccc3[nH]c2=O)c(F)c1F`, for which the TGI in the experiment with HCC-2998 colon, with SK-OV-3 ovarian, in the experiment with NCI-H23 lung, in the experiment on A549 NSCLC, in the experiment with MOLT-4 leukemia and with T-47D breast was > 10 µM throughout. Moreover, the TGI in the experiment on EKVX NSCLC, in the experiment on RXF 393 renal and in the experiment on TK-10 renal was > 10 µM throughout.

With `O=S1(=O)OCCOS(=O)(=O)C1(F)Br`, the TGI in the experiment with HCC-2998 colon, in the experiment with SK-OV-3 ovarian, in the experiment with NCI-H23 lung, with A549 NSCLC, with MOLT-4 leukemia and with T-47D breast was > 100 µM in each case. Further, the TGI in the experiment with EKVX NSCLC, with NCI-H226 lung, in the experiment on RXF 393 renal, in the experiment with TK-10 renal and with ACHN renal was > 100 µM each time.

`CC1CC(C)C(C#N)N(C)c2ccccc21` (configuration not stated): the TGI with HCC-2998 colon, in the experiment with SK-OV-3 ovarian, in the experiment on NCI-H23 lung, with A549 NSCLC, with NCI-H460 lung and in the experiment on MOLT-4 leukemia was > 100 µM throughout. Besides, the TGI in the experiment with T-47D breast, in the experiment on EKVX NSCLC, in the experiment with A498 renal, in the experiment on NCI-H226 lung, in the experiment with RXF 393 renal and in the experiment on TK-10 renal was > 100 µM in each case. Besides, the TGI with ACHN renal is > 100 µM.

Regarding `CCOC(=O)C1C(c2ccc3c(c2)OCO3)c2c([nH][nH]c2=O)CC1(C)O` (configuration not stated), the TGI in the experiment on HCC-2998 colon, with NCI-H23 lung, in the experiment on A549 NSCLC, in the experiment with NCI-H460 lung, in the experiment on MOLT-4 leukemia and with T-47D breast was > 100 µM each time. Also, the TGI with EKVX NSCLC, in the experiment on A498 renal, in the experiment with TK-10 renal and in the experiment with ACHN renal was > 100 µM throughout.

Turning to `CCN1C(=O)c2cc(OC)c(OC)cc2C(=O)C12OC(=O)c1cc3c(cc12)OCO3` (configuration not stated), the TGI in the experiment with HCC-2998 colon, with NCI-H23 lung, with BT-549 breast, in the experiment on A549 NSCLC, in the experiment on NCI-H460 lung and with MOLT-4 leukemia was > 100 µM throughout. For the same molecule, the TGI was > 100 µM in the experiment on EKVX NSCLC; > 100 µM in the experiment with A498 renal; > 100 µM in the experiment on NCI-H226 lung; 72.9 µM in the experiment on RXF 393 renal; > 100 µM in the experiment on TK-10 renal; > 100 µM with ACHN renal.

Regarding `O=C(CCCN1CCC2(CC1)CC(c1ccccc1)OC2=O)c1ccc(F)cc1` (configuration not stated), the TGI in the experiment with HCC-2998 colon is 73.2 µM; in the experiment with SK-OV-3 ovarian it was > 100 µM; with NCI-H23 lung, > 100 µM; in the experiment with A549 NSCLC, > 100 µM; in the experiment with NCI-H460 lung, > 100 µM; in the experiment with MOLT-4 leukemia it was 62.1 µM. For the same molecule, the TGI in the experiment on T-47D breast was 69.1 µM; with EKVX NSCLC, > 100 µM; in the experiment on A498 renal, 74.5 µM; in the experiment on NCI-H226 lung, > 100 µM; with RXF 393 renal, > 100 µM; in the experiment with TK-10 renal, > 100 µM. The TGI in the experiment on ACHN renal is > 100 µM.

Turning to `CN1c2ccccc2C(=O)NC12CCN(CCCC(=O)c1ccc(F)cc1)CC2`, the TGI in the experiment on HCC-2998 colon was 40.3 µM; with SK-OV-3 ovarian it was > 100 µM; with NCI-H23 lung, > 100 µM; in the experiment on BT-549 breast it was > 100 µM; in the experiment on A549 NSCLC, > 100 µM; in the experiment on MOLT-4 leukemia it was 71.2 µM. The TGI in the experiment with T-47D breast, in the experiment with EKVX NSCLC, in the experiment on NCI-H226 lung, with RXF 393 renal and with ACHN renal was > 100 µM each time.

For the molecule `O=[N+]([O-])c1cccc2nnccc12`, the TGI was > 100 µM with SK-OV-3 ovarian; > 100 µM with NCI-H23 lung; > 100 µM in the experiment with BT-549 breast; > 100 µM in the experiment on A549 NSCLC; 42.2 µM in the experiment with NCI-H460 lung; > 100 µM with MOLT-4 leukemia. Also, the TGI with T-47D breast is > 100 µM; in the experiment with EKVX NSCLC, > 100 µM; in the experiment on NCI-H226 lung, 58 µM; in the experiment on RXF 393 renal it was > 100 µM; in the experiment with TK-10 renal, > 100 µM; with ACHN renal, 30 µM.

Consider `CCN(CC)CC1CCCCN1CC(=O)N1c2ccccc2C(=O)Nc2cccnc21` (configuration not stated), for which the TGI in the experiment with HCC-2998 colon was > 100 µM; in the experiment with SK-OV-3 ovarian, > 100 µM; in the experiment with NCI-H23 lung, > 100 µM; with A549 NSCLC, 35.4 µM; in the experiment on NCI-H460 lung, > 100 µM; in the experiment with MOLT-4 leukemia, 55.5 µM. For the same molecule, the TGI in the experiment on T-47D breast is > 100 µM; with EKVX NSCLC, > 100 µM; with A498 renal, > 100 µM; in the experiment on NCI-H226 lung it was 98.8 µM; with RXF 393 renal it was > 100 µM; with TK-10 renal it was > 100 µM. Further, the TGI with ACHN renal was > 100 µM.

As to `CC(=O)c1ccc2c(c1)CC1(C2)Cc2cc3c(cc2C1=O)CCC3` (configuration not stated), the TGI in the experiment on HCC-2998 colon turned out to be 68.4 µM; in the experiment with SK-OV-3 ovarian, 96.3 µM; in the experiment with NCI-H23 lung it was 89.1 µM; with A549 NSCLC, 59.5 µM; with NCI-H460 lung it was 76.3 µM; in the experiment on MOLT-4 leukemia, 21.8 µM. Further, the TGI turned out to be 88.5 µM in the experiment with T-47D breast; 64.8 µM in the experiment with EKVX NSCLC; 51.7 µM in the experiment with A498 renal; 90.4 µM in the experiment on RXF 393 renal; 71.3 µM in the experiment with TK-10 renal; 58.2 µM in the experiment on ACHN renal.
